Data: US20040258771A1 (priority 2001, published 2004)

Key:
tumor growth = settings: has been shown (prior knowledge); cited from earlier work
mice = settings: cited from earlier work
Ovarian cancer cells = assay: Human cancer cell assessment, ovarian; format: cell-based
From the text: As a quick secondary screen, the additive alone and in combination with the target drug was examined in these human cancer cell lines. The results of TK-211 are shown as a specific example.

SMILES | effect on cisplatin efficacy (tumor growth) | known reduction of cisplatin side effects (mice) | Cell survival (Ovarian cancer cells; 1 μg/ml) [%] | Cell survival (Ovarian cancer cells; 2 μg/ml) [%]
NCCCNCCSP(=O)(O)O [Amifostine] | slight impairment of cisplatin efficacy | only to slightly reduce weight loss and hypothermia | – | –
N.N.[Cl][Pt][Cl] [Cisplatin, cis-diamine-dichloroplatinum (II)] | – | – | 3 | 1
